Patent publication US9249129B2, “Morpholino substituted urea derivatives as mTOR inhibitors” (CELLZOME LIMITED, priority 2010, dated 2016)

Tested on: S6RP serine-240/244 phosphorylation in HEK293T/17 cells
Test: In vitro phospho-S6 cellular assay (pS6RP S240/244)
Type: cell-based
Settings: Homo sapiens, Table 6, 2 hours, S6RP Ser240/244, read-out: pS6 (phospho-S6 cell assay data, activity level)
How it was run: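 HEK293T/17 cells in DMEM with 2% FCS treated with 8 compound concentrations (0.1% DMSO) for 2 h at 37 °C, then lysed. Phospho-S6RP Ser240/244 or phospho-Akt Ser473 quantified by MesoScale sandwich immunoassay with Sulfo-Tag detection; IC50 from variable-slope sigmoidal fit.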

Structure (SMILES) | IC50
C[C@H]1COCCN1c1nc(-c2ccc(NC(=O)NCCCO)cc2)cc(-c2cc(F)ccc2S(C)(=O)=O)n1 [Example 64, (S)-1-(4-(6-(5-fluoro-2-(methylsulfonyl)phenyl)-2-(3-methylmorpholino)pyrimidin-4-yl)phenyl)-3-(3-hydroxypropyl)urea] | < 100 nM
C[C@H]1COCCN1c1nc(-c2ccc(NC(=O)NC3CC3)cc2)cc(-c2cc(F)ccc2S(C)(=O)=O)n1 [Example 40, (S)-1-cyclopropyl-3-(4-(6-(5-fluoro-2-(methylsulfonyl)phenyl)-2-(3-methylmorpholino)pyrimidin-4-yl)phenyl)urea] | < 100 nM
O=C(Nc1ccncc1)Nc1ccc(-c2nccc(N3CC4CCC(C3)O4)n2)cc1 [Example 61, 1-(4-(4-(8-oxa-3-azabicyclo[3.2.1]octan-3-yl)pyrimidin-2-yl)phenyl)-3-(pyridin-4-yl)urea] | < 100 nM
C[C@H]1COCCN1c1nc(-c2ccc(NC(=O)NCC(F)F)cc2)cc(-c2cc(F)ccc2S(C)(=O)=O)n1 [Example 47, (S)-1-(2,2-difluoroethyl)-3-(4-(6-(5-fluoro-2-(methylsulfonyl)phenyl)-2-(3-methylmorpholino)pyrimidin-4-yl)phenyl)urea] | < 100 nM
C[C@H]1COCCN1c1cc(-c2ccccc2S(C)(=O)=O)nc(-c2ccc(NC(=O)NC3CC3)cc2)n1 [Example 6, (S)-1-cyclopropyl-3-(4-(4-(3-methylmorpholino)-6-(2-(methylsulfonyl)phenyl)pyrimidin-2-yl)phenyl)urea] | < 100 nM
C[C@H]1COCCN1c1nc(-c2ccc(NC(=O)NC3CC3)cc2)cc(-c2cccnc2S(C)(=O)=O)n1 [Example 46, (S)-1-cyclopropyl-3-(4-(2-(3-methylmorpholino)-6-(2-(methylsulfonyl)pyridin-3-yl)pyrimidin-4-yl)phenyl)urea] | < 100 nM
C[C@H]1COCCN1c1ccnc(-c2ccc(NC(=O)Nc3ccncc3)cc2)n1 [Example 60, (S)-1-(4-(4-(3-methylmorpholino)pyrimidin-2-yl)phenyl)-3-(pyridin-4-yl)urea] | < 100 nM
C[C@H]1COCCN1c1nc(-c2ccc(NC(=O)N[C@H]3CCC[C@@H]3O)cc2)cc(-c2cc(F)ccc2S(C)(=O)=O)n1 [Example 76, 1-(4-(6-(5-fluoro-2-(methylsulfonyl)phenyl)-2-((S)-3-methylmorpholino)pyrimidin-4-yl)phenyl)-3-((1S,2S)-2-hydroxycyclopentyl)urea] | < 100 nM
C[C@H]1COCCN1c1cc(-c2ccccn2)nc(-c2ccc(NC(=O)NCCO)cc2)n1 [Example 43, (S)-1-(2-hydroxyethyl)-3-(4-(4-(3-methylmorpholino)-6-(pyridin-2-yl)pyrimidin-2-yl)phenyl)urea] | < 100 nM
C[C@H]1COCCN1c1cc(-c2ccc(F)nc2)nc(-c2ccc(NC(=O)NC3CC3)cc2)n1 [Example 21, (S)-1-cyclopropyl-3-(4-(4-(6-fluoropyridin-3-yl)-6-(3-methylmorpholino)pyrimidin-2-yl)phenyl)urea] | < 100 nM
C[C@H]1COCCN1c1cc(-c2cncc(F)c2)nc(-c2ccc(NC(=O)NC3CC3)cc2)n1 [Example 23, (S)-1-cyclopropyl-3-(4-(4-(5-fluoropyridin-3-yl)-6-(3-methylmorpholino)pyrimidin-2-yl)phenyl)urea] | 100 to 1000 nM
C[C@H]1COCCN1c1nc(-c2ccc(NC(=O)NC3CC3)cc2)cc(-c2ccccc2S(C)(=O)=O)n1 [Example 4, (S)-1-cyclopropyl-3-(4-(2-(3-methylmorpholino)-6-(2-(methylsulfonyl)phenyl)pyrimidin-4-yl)phenyl)urea] | < 100 nM
C[C@H]1COCCN1c1cc(-c2ccccn2)nc(-c2ccc(NC(=O)NC3CC3)cc2)n1 [Example 42, (S)-1-cyclopropyl-3-(4-(4-(3-methylmorpholino)-6-(pyridin-2-yl)pyrimidin-2-yl)phenyl)urea] | 100 to 1000 nM
C[C@H]1COCCN1c1nc(-c2ccc(NC(=O)NCCO)cc2)cc(-c2cc(F)ccc2S(C)(=O)=O)n1 [Example 41, (S)-1-(4-(6-(5-fluoro-2-(methylsulfonyl)phenyl)-2-(3-methylmorpholino)pyrimidin-4-yl)phenyl)-3-(2-hydroxyethyl)urea] | < 100 nM
CS(=O)(=O)c1ccc(F)cc1-c1cc(-c2ccc(NC(=O)NCCO)cc2)nc(N2CCOCC2)n1 [Example 62, 1-(4-(6-(5-fluoro-2-(methylsulfonyl)phenyl)-2-morpholinopyrimidin-4-yl)phenyl)-3-(2-hydroxyethyl)urea] | 100 to 1000 nM
CCNC(=O)Nc1ccc(-c2cc(-c3cc(F)ccc3S(C)(=O)=O)nc(N3CCOC[C@@H]3C)n2)cc1 [Example 2, (S)-1-ethyl-3-(4-(6-(5-fluoro-2-(methylsulfonyl)phenyl)-2-(3-methylmorpholino)pyrimidin-4-yl)phenyl)urea] | < 100 nM
C[C@H]1COCCN1c1nc(-c2ccc(NC(=O)NCCF)cc2)cc(-c2cc(F)ccc2S(C)(=O)=O)n1 [Example 44, (S)-1-(4-(6-(5-fluoro-2-(methylsulfonyl)phenyl)-2-(3-methylmorpholino)pyrimidin-4-yl)phenyl)-3-(2-fluoroethyl)urea] | < 100 nM
